We go through one molecule from patent EP1018866B1, “COMPOSITIONS AND METHODS FOR THE PRESERVATION OF LIVING TISSUES” (Biostore New Zealand Limited, priority 1996, dated 1997).

The test system of this test is mouse embryos. Description: Storage of mouse embryos in Solution 70/30 at 4 °C with or without sodium butyrate pretreatment. Type of test: cell-based.

Description: Mouse embryos were incubated with either sodium butyrate or a Class II solute at either room temperature, 30 °C or 4 °C prior to storage in Solution 70/30 for up to five days at 4 °C. […] Sodium butyrate replaced sodium chloride at the same concentration in PBS.

For `CCCC(=O)[O-].[Na+]` [sodium butyrate], for the setting “pretreatment with higher concentrations of sodium butyrate, 5 days of storage in Solution 70/30”, the embryos hatched entry is recorded as “up to 70%”. Besides, the embryos to hatch entry (pretreatment with sodium butyrate, three days of storage in Solution 70/30 at 4 °C) is given as “up to 80%”.
